US10736907B2, “Use of sugar-alcohols in tibolone compositions” (Mithra Pharmaceuticals S.A., priority 2016, dated 2020)
Like-named read-outs stand apart in the source and are kept apart here.

Experiment: Tibolone impurities (A, B, C, total except C) in tablets by HPLC just after production and during storage (stability)
Assay type: physicochemical
Experimental: Tibolone tablets were manufactured by a conventional direct compression process. Briefly, the raw materials were weighed, sieved and homogenized. Following homogenization, the mixture was compressed into tablets. Just after production (i.e. at t=0), the tablets were analyzed for tibolone impurities by a chromatography (HPLC) method that allows a suitable separation between the peaks of impurities A, B and C (Tibolone degradation products described in the current European Pharmacopeia Monograph 1739) under the following conditions: • Equipment: HPLC system • Pre-column: Universal RP, EC 4/3 • Stationary phase: Nucleodur 100-3 C18ec Particulars' diameter: 3 μm • Length: 150 mm • Internal diameter: 4.6 mm • Mobile phase: • Solvent A: water for chromatography R • Solvent B: Acetonitrile for chromatography R • Gradient program: […]
The tablets were packed into PVC/Aluminium blisters and stored either 1) at a temperature of 25° C. and a relative humidity of 60% (long term stability conditions for Zone II), 2) at a temperature of 40° C. and a relative humidity of 75% (accelerated stability conditions), or 3) at ambient conditions (laboratory conditions, less than 25° C., no humidity control). After 1, 2, 3 and/or 6 months of storage (up to 18 months for batches #2 and #3), the tablets were analyzed for tibolone impurities.

SMILES	stabilizing effect on tibolone in the tablets (in words)	stabilizing effect on tibolone in the tablets (in words) (excipient added to tibolone tablets)
CCCCCCCCCCCCCCCC(=O)OC[C@H](O)[C@H]1OC(=O)C(O)=C1O [ascorbyl palmitate]	additional stabilizing effect	–
O=C(O)CN(CCN(CC(=O)O)CC(=O)O)CC(=O)O [EDTA]	–	does not further stabilize
